For three compounds, MIC and inhibition results are on record in PMC6270420, “Antibacterial Activity of Salicylanilide 4-(Trifluoromethyl)benzoates” (Molecules, 2013).

≈ marks a conversion by molar mass, not a printed value. Read-outs that look alike come from different tables or passages of the source. Bounds are passed on as bounds.

One assay has as its system Mtb. 53/2009. Description: microbe, parasite or virus in culture. It counts as cell-based. Particulars: Mycobacterium tuberculosis, read-out: MIC Mtb. 53/2009.
Another assay has as its system Mtb. 7357/1988. Briefly: microbe, parasite or virus in culture. Conditions: Mycobacterium tuberculosis, read-out: MIC Mtb. 7357/1988. The assay is classed as cell-based.
For assay [1], the system named is Mycobacterium kansasii 235/80. Description: Antimycobacterial MIC micromethod. It counts as cell-based. Conditions: read-out: MIC M. kansasii 235/80.
Assay [2] concerns the target T1, mycobacterial isocitrate lyase (ICL1, Rv0467) (Mycobacterium tuberculosis, UniProt P9WKK7).
T1 construct: His tag (from pET-28b(+)); made in house; host or cells: E. coli BL21(DE3), pET-28b(+) plasmid
T1 sequence (P9WKK7 1-428): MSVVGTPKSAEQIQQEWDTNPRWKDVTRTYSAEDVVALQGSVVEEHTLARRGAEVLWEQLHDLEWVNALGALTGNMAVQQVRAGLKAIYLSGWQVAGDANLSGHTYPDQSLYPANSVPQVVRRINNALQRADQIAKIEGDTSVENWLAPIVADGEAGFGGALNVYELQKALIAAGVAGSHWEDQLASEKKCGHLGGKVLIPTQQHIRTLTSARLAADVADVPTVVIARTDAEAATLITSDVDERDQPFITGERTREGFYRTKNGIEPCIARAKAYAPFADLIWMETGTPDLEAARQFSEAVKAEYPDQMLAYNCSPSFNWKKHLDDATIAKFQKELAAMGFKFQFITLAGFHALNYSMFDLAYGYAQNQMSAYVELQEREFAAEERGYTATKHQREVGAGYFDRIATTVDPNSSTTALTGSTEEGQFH
Description: Isocitrate lyase inhibition assay (ICL1). The assay is classed as biochemical, Mycobacterium tuberculosis H37Rv. Conditions: 10 μmol/L; read-out: % ICL inhibition at 10 μmol/L (± standard deviation).

Assay [3] has as its system Mycobacterium tuberculosis 331/88 (H37Rv). Briefly: Antimycobacterial MIC micromethod, Šula's medium. The assay is classed as cell-based.
Assay [4] deals with Gram-positive cocci including MRSA. Briefly: Antibacterial microdilution, summary for Gram-positive cocci. The assay is classed as cell-based. Particulars: Staphylococcus aureus, read-out: MICs against Gram-positive cocci. The procedure:
The in vitro antibacterial activity was assayed against eight Gram-positive and Gram-negative strains: Staphylococcus aureus CCM 4516/08, methicillin-resistant Staphylococcus aureus H 5996/08 (MRSA), Staphylococcus epidermidis H 6966/08, Enterococcus sp. J 14365/08; Escherichia coli CCM 4517, Klebsiella pneumoniae D 11750/08, ESBL-positive Klebsiella pneumoniae J 14368/08, and Pseudomonas aeruginosa CCM 1961.
The microdilution broth method modified according to standard M07-A07 in Mueller-Hinton broth (HiMedia Laboratories, Mumbai, India) adjusted to pH 7.4 (±0.2) was used. The tested compounds were dissolved in DMSO to the final concentrations ranging from […]. Benzylpenicillin (penicillin G) was used as a comparative drug. Bacterial inoculum in sterile water was prepared to match 0.5 McFarland scale ([…]). The minimum inhibitory concentrations were assayed as 90% (IC90) or higher reduction of growth when compared to the control. The determination of results was performed visually and spectrophotometrically (at 540 nm). The values of MICs were determined after 24 and 48 h of incubation in the darkness at 35 °C (±0.1) in a humid atmosphere.
A general note: In broth dilution the organism is exposed to a series of concentrations in liquid medium.

For assay [5], the system named is Mycobacterium tuberculosis, M. avium and M. kansasii. Description: Antimycobacterial MIC, summary over all mycobacterial strains. The assay is classed as cell-based. Particulars: range over all strains and times; read-out: MICs against all mycobacterial strains.
Where [6] appears, read: 336 h, 14 d, read-out: MIC Mtb. 331/88.
[7] abbreviates: 504 h, 21 d, read-out: MIC Mtb. 331/88.
Setting [8] is: time not stated, read-out: MIC against M. tuberculosis.

Consider `O=C(Oc1ccc(Cl)cc1C(=O)Nc1ccc(Cl)c(Cl)c1)c1ccc(C(F)(F)F)cc1` [1e], for which the MIC in the assay on Mtb. 53/2009 (336 h) came out at 2 µM (≈ 0.977 µg/mL); in the assay with Mtb. 53/2009 (504 h), 4 µM (≈ 1.95 µg/mL); in the assay with Mtb. 7357/1988 (336 h), 1 µM (≈ 0.489 µg/mL); in the assay with Mtb. 7357/1988 (504 h) it was 2 µM (≈ 0.977 µg/mL); in assay [1] (235/80, 168 h, 7 d), 1 µM (≈ 0.489 µg/mL); in assay [1] (235/80, 336 h, 14 d) it was 2 µM (≈ 0.977 µg/mL). Also, the MIC in assay [1] (235/80, 504 h, 21 d) was 4 µM (≈ 1.95 µg/mL); in assay [3] (setting [6]) it was 1 µM (≈ 0.489 µg/mL); in assay [3] (setting [7]), 1 µM (≈ 0.489 µg/mL); in assay [3] (setting [8]), 1 µM (≈ 0.489 µg/mL); in assay [4], under 1 µM. Besides, the inhibition at 10 µM in assay [2] was 18 ± 1.5%.

With `O=C(Oc1cc(Cl)ccc1C(=O)Nc1ccc(Br)cc1)c1ccc(C(F)(F)F)cc1` [1j], the MIC with Mtb. 53/2009 (336 h) came to 2 µM (≈ 0.997 µg/mL); in the assay with Mtb. 53/2009 (504 h), 2 µM (≈ 0.997 µg/mL); with Mtb. 7357/1988 (336 h) it was 2 µM (≈ 0.997 µg/mL); with Mtb. 7357/1988 (504 h), 2 µM (≈ 0.997 µg/mL); in assay [1] (235/80, 168 h, 7 d), 1 µM (≈ 0.499 µg/mL); in assay [1] (235/80, 336 h, 14 d), 4 µM (≈ 1.99 µg/mL). For the same compound, the MIC is 4 µM (≈ 1.99 µg/mL) in assay [1] (235/80, 504 h, 21 d); 2 µM (≈ 0.997 µg/mL) in assay [3] (setting [6]); 4 µM (≈ 1.99 µg/mL) in assay [3] (setting [7]); under 1 µM in assay [4]. The inhibition at 10 µM in assay [2] was 14 ± 4%.

Take `O=C(Oc1ccc(Cl)cc1C(=O)Nc1ccc(C(F)(F)F)cc1)c1ccc(C(F)(F)F)cc1` [1o, 4-chloro-2-[4-(trifluoromethyl)phenylcarbamoyl]phenyl 4-(trifluoromethyl)benzoate]: the MIC with Mtb. 53/2009 (336 h) is 1 µM (≈ 0.488 µg/mL); with Mtb. 53/2009 (504 h), 1 µM (≈ 0.488 µg/mL); with Mtb. 7357/1988 (336 h) it was 0.5 µM (≈ 0.244 µg/mL); in the assay with Mtb. 7357/1988 (504 h) it was 1 µM (≈ 0.488 µg/mL); in assay [1] (235/80, 168 h, 7 d), 1 µM (≈ 0.488 µg/mL); in assay [1] (235/80, 336 h, 14 d), 2 µM (≈ 0.976 µg/mL). Moreover, the MIC was 2 µM (≈ 0.976 µg/mL) in assay [1] (235/80, 504 h, 21 d); 1 to 4 µM (≈ 0.488 to 1.95 µg/mL) in assay [5]; 1 µM (≈ 0.488 µg/mL) in assay [3] (setting [6]); 1 µM (≈ 0.488 µg/mL) in assay [3] (setting [7]); 1 µM (≈ 0.488 µg/mL) in assay [3] (setting [8]). Moreover, the inhibition at 10 µM in assay [2] amounted to 13 ± 1.2%.
